Where a name gives a salt, the structure may show the parent alone.
Assays:
iNOS [1] = target: T1, iNOS (Homo sapiens, UniProt P35228); assay: abcam NOS Inhibitor Screening Kit, IC50 (fluorescence); format: biochemical; design: IC50; IC50; conditions: abcam NOS Inhibitor Screening Kit
Method: (§1) The IC50 of some compounds of the invention was determined using the abcam NOS Inhibitor Screening Kit. The procedure includes the following steps: (1) Dissolved a test compound to 10 mM in DMSO; (2) Diluted the test compound to 1 mM in NOS Assay Buffer; (3) Diluted 1 mM of the test compound stocks to 200 μM, 50 μM, 12.5 μM, 3.125 μM, 0.781 μM, and 0.195 μM in NOS Assay Buffer; (4) Diluted 1 mM DPI Control to 50.0 μM, 12.5 μM, 3.125 μM, 0.781 μM, 0.195 μM, and 0.0488 μM in NOS Assay Buffer; (5) Diluted NOS enzyme with 400 μL of NOS Assay Buffer; (6) Combined Diluted NOS Enzyme with 1.6 mL of NOS Assay buffer then transferred 20 μL of enzyme solution to all wells of 96-well Fluorescence plate except background wells. Added 20 μL of NOS Assay buffer to background wells. (7) Transferred 10 uL of each test compound dilution to the enzyme buffer mix according to the plate map (see addendum for plate map and raw data values). (8) Incubated 15 minutes at room temperature. (9) Added 11 μL of NOS reaction mix (according to manufacturer's protocol) to each well, mixed, and incubated at 37° C. for 1 hour. (10) Added 110 μL of NOS Assay Buffer to each well followed by 5 μL of Enhancer to each well, mixed, and incubated 10 minutes at room temperature; (11) Added 10 μL of Probe to each well, mixed, and incubated 10 minutes at room temperature; and (12) Added 5 μL of NaOH to each well, mixed, and incubated 10 minutes at room temperature. Measure Fluorescence at 360 nm excitation/450 nm emission.

iNOS [2] = target: T1, iNOS; assay: as above; format: biochemical; design: Fold (GT-xxxx)/AZ 6b; conditions: ratio of IC50 to AZ 6b IC50 (0.0488 μM)
Method: as §1

SMILES | IC50 (iNOS [1]; Table C-1) [µM] | IC50 (iNOS [1]; Table C-2) [µM] | Fold (GT-xxxx)/AZ 6b (iNOS [2])
N#Cc1ccc(Cl)cc1CN(CCNC1CCC(O)CC1)c1ccccc1 (single isomer, unassigned) [GT-7023, 4-chloro-2-(((2-((4-hydroxycyclohexyl)amino)ethyl)(phenyl)amino)methyl) benzonitrile] | 10.5 |  | 
N#Cc1ccc(Cl)cc1CN(CCNC1CCC(O)CC1)c1ccccc1 (single isomer, unassigned) [GT-7024, 4-chloro-2-(((2-((4-hydroxycyclohexyl)amino)ethyl)(phenyl)amino)methyl) benzonitrile] | 14.4 |  | 
CNCC[C@@H](Oc1nc(C)ccc1Br)c1ccccc1 [GT-5012, (R)-3-((3-bromo-6-methylpyridin-2-yl)oxy)-N-methyl-3-phenylpropan-1-amine] | 12600 |  | 
CNCC[C@@H](Oc1nc(C(F)(F)F)ccc1C#N)c1ccccc1 [GT-5013, (R)-2-(3-(methylamino)-1-phenylpropoxy)-6-(trifluoromethyl) nicotinonitrile] | 23.3 |  | 
Cc1ccc(C#N)c(O[C@H](CCN2CC[C@@H](O)C2)c2ccccc2)n1 [GT-5017, 2-((R)-3-((R)-3-hydroxypyrrolidin-1-yl)-1-phenylpropoxy)-6-methyl nicotinonitrile] | 6.75 |  | 
Cc1ccc(C#N)c(O[C@H](CCNC(C)(C)C)c2ccccc2)n1 [GT-5018, (R)-2-(3-(tert-butylamino)-1-phenylpropoxy)-6-methylnicotinonitrile] | 5.04 |  | 
Cc1ccc(C#N)c(O[C@H](CCNCCN(C)C)c2ccccc2)n1 [GT-5019, (R)-2-(3-((2-(dimethylamino)ethyl)amino)-1-phenylpropoxy)-6-methyl nicotinonitrile] | 9.62 |  | 
Cc1ccc(C#N)c(O[C@H](CCNCCN2CCOCC2)c2ccccc2)n1 [GT-5020, (R)-6-methyl-2-(3-((2-morpholinoethyl)amino)-1-phenylpropoxy)nicotinonitrile] | 7.29 |  | 
Cc1ccc(C#N)c(O[C@H](CCNCCc2c[nH]cn2)c2ccccc2)n1 [GT-5023, (R)-2-(3-((2-(1H-imidazol-4-yl)ethyl)amino)-1-phenylpropoxy)-6-methylnicotinonitrile] | 5.43 |  | 
Cc1ccc(C#N)c(O[C@H](CCNCC2CC2)c2ccccc2)n1 [GT-5031, (R)-2-(3-((cyclopropylmethyl)amino)-1-phenylpropoxy)-6-methylnicotinonitrile] | 4.54 |  | 
N#Cc1ccc(Cl)cc1CN(CCN)c1ccccc1Cl [GT-7004, 2-(((2-aminoethyl)(2-chlorophenyl)amino)methyl)-4-chlorobenzonitrile hydrochloride] | 5.79 |  | 
NCCN(Cc1cc(Cl)ccc1Br)c1ccccc1 [GT-7006, N1-(2-bromo-5-chlorobenzyl)-N1-phenylethane-1,2-diamine] | 157 |  | 
NCCN(Cc1cc(Cl)ccc1Br)c1ccccc1Cl [GT-7008, N1-(2-bromo-5-chlorobenzyl)-N1-(2-chlorophenyl)ethane-1,2-diamine hydrochloride] | 5.56 |  | 
N#Cc1ccc(Cl)cc1CN(CCNCCO)c1ccccc1 [GT-7010, 4-chloro-2-(((2-((2-hydroxyethyl)amino)ethyl)(phenyl)amino)methyl) benzonitrile] | 9.18 |  | 
N#Cc1ccc(Cl)cc1CN(CCNC[C@@H](O)CO)c1ccccc1 [GT-7016, (R)-4-chloro-2-(((2-((2,3-dihydroxypropyl)amino)ethyl)(phenyl)amino)methyl)benzonitrile] | 8.52 |  | 
N#Cc1ccc(Cl)cc1CN(CCNC(CO)CO)c1ccccc1 [GT-7018, 4-chloro-2-(((2-((1,3-dihydroxypropan-2-yl)amino)ethyl)(phenyl)amino)methyl)benzonitrile] | 20.3 |  | 
N#Cc1ccc(Cl)cc1CN(CCNCC1CC1)c1ccccc1 [GT-7020, 4-chloro-2-(((2-((cyclopropylmethyl)amino)ethyl)(phenyl)amino)methyl) benzonitrile] | 15.5 |  | 

Compounds with a lower IC50 (iNOS [1]; Table C-1), results first:

IC50 (iNOS [1]; Table C-1) [µM] | IC50 (iNOS [1]; Table C-2) [µM] | Fold (GT-xxxx)/AZ 6b (iNOS [2]) | SMILES
4.04 |  |  | Cc1ccc(C#N)c(O[C@H](CCN2CC[C@H](O)C2)c2ccccc2)n1 [GT-5016, 2-((R)-3-((S)-3-hydroxypyrrolidin-1-yl)-1-phenylpropoxy)-6-methyl nicotinonitrile]
3.66 |  |  | N#Cc1ccc(Cl)cc1C(=O)N(CCNC(CO)CO)c1ccccc1 [GT-7017, 5-chloro-2-cyano-N-(2-((1,3-dihydroxypropan-2-yl)amino)ethyl)-N-phenylbenzamide]
3.56 |  |  | Cc1ccc(C#N)c(O[C@H](CCNC[C@@H](O)CO)c2ccccc2)n1 [GT-5025, 2-((R)-3-(((R)-2,3-dihydroxypropyl)amino)-1-phenylpropoxy)-6-methylnicotinonitrile]
2.34 |  |  | Cc1ccc(C#N)c(O[C@H](CCNC[C@H](O)CO)c2ccccc2)n1 [GT-5024, 2-((R)-3-(((S)-2,3-dihydroxypropyl)amino)-1-phenylpropoxy)-6-methylnicotinonitrile]
2.17 |  |  | Cc1ccc(C#N)c(O[C@H](CCNCCO)c2ccccc2)n1 [GT-5014, (R)-2-(3-((2-hydroxyethyl)amino)-1-phenylpropoxy)-6-methylnicotinonitrile]
1.74 |  |  | Cc1ccc(C#N)c(O[C@H](CCNCCCO)c2ccccc2)n1 [GT-5015]
1.59 |  |  | Cc1ccc(C#N)c(O[C@H](CCN)c2ccccc2)n1 [GT-5001, (R)-2-(3-amino-1-phenylpropoxy)-6-methylnicotinonitrile]
1.35 |  |  | CNCC[C@@H](Oc1nc(C)ccc1C#N)c1ccccc1 [GT-5002, (R)-6-methyl-2-(3-(methylamino)-1-phenylpropoxy)nicotinonitrile]
0.457 | 0.457 | 9.36 | CNCC[C@@H](Oc1cc(Cl)cc2[nH]cnc12)c1ccccc1 [GT-6058, (R)-3-((6-chloro-1H-benzo[d]imidazol-4-yl)oxy)-N-methyl-3-phenylpropan-1-amine]
0.444 | 0.444 | 9.10 | OCCNCC[C@@H](Oc1cc(Cl)cc2[nH]cnc12)c1ccccc1 [GT-6060, (R)-2-((3-((6-chloro-1H-benzo[d]imidazol-4-yl)oxy)-3-phenylpropyl)amino)ethan-1-ol]
0.252 | 0.252 | 5.16 | CNCC[C@@H](Oc1cc(Cl)cc2[nH]ncc12)c1ccccc1 [GT-6059, (R)-3-((6-chloro-1H-indazol-4-yl)oxy)-N-methyl-3-phenylpropan-1-amine]
0.231 | 0.231 | 4.73 | NCC[C@@H](Oc1cc(Cl)cc2[nH]ncc12)c1ccccc1 [GT-6045]
0.156 | 0.156 | 3.20 | NCC[C@@H](Oc1cc(Cl)cc2[nH]cnc12)c1ccccc1 [GT-6041, (R)-3-((6-chloro-1H-benzo[d]imidazol-4-yl)oxy)-3-phenylpropan-1-amine]
0.0678 | 0.0678 | 1.39 | N#Cc1ccc(Cl)cc1OC(CCN1C(=O)c2ccccc2C1=O)c1ccn2ccnc2c1 (stereo not shown) [GT-6065, 4-chloro-2-(3-(1,3-dioxoisoindolin-2-yl)-1-(imidazo[1,2-a]pyridin-7-yl)propoxy)benzonitrile]
0.0285 | 0.0285 | 0.58 | N#Cc1ccc(Cl)cc1OC(CCN)c1ccnc(N)c1 (stereo not shown) [GT-6064, 2-(3-amino-1-(2-aminopyridin-4-yl)propoxy)-4-chlorobenzonitrile]
